# In PubChem BioAssay AID1996:
# Settings: buffer; pH 7.4; 200.0 µM
row,Compound,solubility kinetic [µg/mL]
1,Cc1cc(C(=O)OCC(=O)NC2CCC(C)CC2)c(C)o1 (stereo unspecified),11.6
2,Cc1cc(C)cc(N2C(=O)C3CCCN3C2=S)c1 (stereo unspecified),> 39.1
3,Cc1cccc(C)c1NC(=S)NC(=O)c1ccc(Br)o1,4.1
4,O=C(CN1CCCCC1)Nc1ccccc1Oc1ccccc1,5.6
5,COc1cccc(/C=C/C(=O)N2CC(C)OC(C)C2)c1OC (stereo unspecified),> 45.8
6,O=C(O)Cc1sc(-c2ccccc2)nc1-c1cccs1,> 45.2
7,COc1ccc(CCNC(=O)C2CC2)cc1,32.4
8,Cc1cc(C(=O)Nc2ccccc2Cc2ccccc2)no1,2.8
9,CC(=O)c1cccc(NC(=O)NC(C)c2ccc3c(c2)OCO3)c1 (stereo unspecified),6.9
10,Cl.Nc1nc2ccccc2n1C(=O)c1cccs1,2
11,COc1ccc2cc(C#N)c(Nc3cccc(F)c3)nc2c1,< 0.2
12,Cc1ccc(Cl)cc1N1C(=O)CC(Sc2ncccn2)C1=O (stereo unspecified),> 50.1
13,CS(=O)(=O)N1CCN(Cc2cc(=O)n3ccsc3n2)CC1,> 49.3
14,CC(NC(=O)NC(=O)c1ccc(F)cc1)C1CC1 (stereo unspecified),16.2
15,COc1ccc(N2CCN(CC(=O)Nc3ccc(C)cc3)CC2)cc1,46.8
16,CSc1nc2ccc(C)cc2c(=O)n1-c1cccnc1,8.1
17,C=CCNC(=O)c1ccc(S(=O)(=O)CC)c(Cl)c1Cl,> 48.3
18,COc1ccc(C(=O)Nc2ccc(CN3CCS(=O)(=O)CC3)cc2)cc1,1.3
19,Cc1cc(C(=O)NCc2nc(-c3ccccc3)no2)ccc1[N+](=O)[O-],18.9
20,Cc1ccc(S(=O)(=O)N2CC(O)CC2C(=O)OCC(=O)Nc2ccc([N+](=O)[O-])cc2C(F)(F)F)cc1C (stereo unspecified),76.5
21,COc1ccc(C2(C)NC(=O)N(CC3CCCCC3)C2=O)cc1 (stereo unspecified),> 47.5
22,CC(Sc1cccc[n+]1[O-])C(=O)NC1CCCCC1C (stereo unspecified),> 44.2

row,Compound,solubility kinetic [µg/mL]
1,O=C(Nc1ncc(Cc2cccc(Cl)c2Cl)s1)C1CCCO1 (stereo unspecified),1.9
2,O=c1[nH]sc2cc(F)ccc12,22.7
3,O=C(CN1CCN(c2ccccn2)CC1)Nc1cccc(F)c1,19.9
4,Cc1ccc(C(=O)NC2CCC(C)CC2)s1 (stereo unspecified),10.2
5,NC(=O)C1CCN(C(=O)/C(=C/c2ccco2)NC(=O)c2ccccc2)CC1,> 55.1
6,CCOC(=O)C1=C(O)C(=O)N(C2CCCCC2)C1,> 38
7,CCCCNC(=O)c1cc2cc(CC)ccc2[nH]1,1.9
8,COc1ccc(Cl)cc1NC(=O)COC(=O)C1CC(=O)N(Cc2ccccc2)C1 (stereo unspecified),57.4
9,O=S1(=O)CCN2C=C(Cl)C=C(Cl)C2=N1,> 38
10,S=c1[nH]nc(CSCCOc2ccc(Cl)cc2Cl)o1,> 50.6
11,N#Cc1ccc(OCC(=O)NCCN2CCOCC2)cc1,> 43.4
12,COc1ccc(C(=O)NC(C)c2cccnc2)cc1S(=O)(=O)N(C)Cc1ccccc1 (stereo unspecified),47
13,Cc1c(C)c(C)c(CN2CCSCC2)c(C)c1C,< 0.6
14,COc1ccc(CNC(=O)c2cncc(Br)c2)cc1,45.8
15,CCOc1ccc(NC(=O)CCC(=O)c2ccc(F)cc2)cc1,2.5
16,CN1CCN(C(=O)/C(=C/c2ccccc2F)NC(=O)c2ccccc2)CC1,> 55.1
17,CCc1ccc(NC(=S)N2CCCC2)cc1,> 35.2
18,COCCn1c(SCC(=O)NNC(=O)c2ccccc2)nc2ccccc21,> 57.7
19,CN(C)c1ccc(C(=O)/C=C/c2cccnc2)cc1,6.7
20,Cc1nc(NC(=O)C2CC2)sc1C(=O)Nc1ccccc1Cl,2.1
21,CN(C)CCCn1c(=S)[nH]c2sc3c(c2c1=O)CCCC3,> 48.5
22,COCCn1c(N2CCCC2)nc2c1c(=O)[nH]c(=O)n2C,> 44

row,Compound,solubility kinetic [µg/mL]
1,Cc1cc(O)c(NC(=O)c2cccc([N+](=O)[O-])c2)cc1C,< 0.3
2,CC(C)C(CCNCc1ccccn1)c1ccc(Cl)cc1 (stereo unspecified),24.8
3,Cc1cc(C(=O)OCC(=O)NC2CC2)c2ccccc2n1,> 42.6
4,CC(C)(CO)CNC1CCCN(C2Cc3ccccc3C2)C1 (stereo unspecified),40.5
5,O=C(O)c1ccc(Cl)c(S(=O)(=O)NCc2cccnc2)c1,> 49
6,Cc1cc2nc3c(=O)[nH]c(=S)[nH]c3nc2cc1NC(=O)C(F)(F)F,26.8
7,CC(C)(C)C1COc2ccccc2N1C(=O)c1cccc(Cl)c1 (stereo unspecified),< 0.7
8,O=C(Nc1ccc(N2CCOCC2)cc1)c1c(F)cccc1Cl,21.3
9,CCOc1ccccc1NC(=O)C(c1ccccc1)N1CCN(CC(=O)N2CCCC2)CC1 (stereo unspecified),> 67.6
10,COc1cc2c(cc1OC)/C(=C/C(=O)c1ccccc1F)NCC2,40.4
11,COC1Cc2ccccc2N(C(N)=O)c2ccccc21 (stereo unspecified),> 40.2
12,O=C(CCCc1nc2ccccc2s1)Nc1ccccc1,9.9
13,CCC(C)(C)c1ccc(OC(=O)c2cccnc2Cl)cc1,< 0.7
14,S=C(NCc1ccccc1)N1CCc2ccccc2C1,5.6
15,COCC(C)NC(=S)NCCc1ccc(Cl)cc1Cl (stereo unspecified),> 48.2
16,O=C(Nc1ccc(NC(=O)c2ccco2)nc1)c1cccc(F)c1,1.9
17,Cc1ccccc1NC(=O)COc1ccc2c(c1)OC(C)(C)CC2=O,< 0.7
18,CC1(C)CC(=O)C=C(Nc2ccccc2N)C1,> 34.5
19,CC1CC(=O)Nc2ccccc2N1C(=O)Nc1ccccc1 (stereo unspecified),30.2
20,O=c1[nH]cccc1-c1nc2ccccc2n1Cc1ccccc1F,3.9
21,CC(=O)Nc1ccc(NC(=O)CCCn2cnc3ccccc3c2=O)cc1,49.1
22,COC(=O)c1ccccc1NS(=O)(=O)c1ccc(Cl)nc1,48

row,Compound,solubility kinetic [µg/mL]
1,CNC(=O)N1c2ccccc2C=Cc2ccccc21,> 37.5
2,Cc1cc(Nc2ccc(C)c(C)c2)c2ccccc2n1,> 39.4
3,Cl.NCc1cc2c3c(c1)CCCN3CCC2,> 41.3
4,O=C(NNC(=O)C1CCN(S(=O)(=O)c2ccccc2)CC1)c1ccccc1O,> 60.5
5,O=C(Nc1cccc(Cl)c1N1CCCC1)c1ccco1,1.2
6,OC(CN1CCCC(C(F)(F)F)C1)c1ccccc1 (stereo unspecified),31.1
7,COc1ccccc1-c1cc(-c2ccc(O)cc2)nc(N)c1C#N,3.7
8,Cc1nc2ccc(NC(=O)C3COc4ccccc4O3)cc2s1 (stereo unspecified),30.9
9,Cc1cc(C)n(-c2ccnc3cc(Cl)ccc23)n1,> 38.7
10,COC(=O)c1ccc(C(=O)Nc2ccc3c(c2)C(=O)NC3=O)cc1,< 0.3
11,COC(=O)c1cc(OC)c(OC)cc1NC(=S)N1CCOCC1,39.7
12,Cc1cc(N2CCN(C(=O)/C=C/C(=O)O)CC2)c2ccccc2n1,48.6
13,O=C1CC(Cc2ccccc2)C(=O)N1c1ncccn1 (stereo unspecified),> 40.1
14,O=C(O)c1cccc(S(=O)(=O)NCC2COc3ccccc3O2)c1 (stereo unspecified),> 52.4
15,CC1COc2ccccc2N1C(=O)c1cccnc1Cl (stereo unspecified),> 43.3
16,N/C(=N/O)c1nc(N2CCCC2)nc(N2CCCC2)n1,> 41.6
17,Cc1cc(S(=O)(=O)N2CCCCC2)c(C)s1,> 38.9
18,CCOC(=O)c1cc(C)sc1/N=C/C1C(=O)NC(=S)NC1=O,4.7
19,CCOc1ncccc1C(=O)Nc1ccc(S(=O)(=O)N2CC(C)CC(C)C2)cc1 (stereo unspecified),0.9
20,Nc1ccc(S(=O)(=O)NC(Cc2ccccc2)C(=O)O)cc1 (stereo unspecified),32.9
